Results published in patent US5929063A, “Mercapto and seleno derivatives as inhibitors of nitric oxide synthase” (priority 1995, dated 1999).
Like-named read-outs stand apart in the source and are kept apart here.

Experiments:
J774 macrophages = assay: Nitrite production by immunostimulated J774 macrophages (endotoxin 24 h, Griess); type: cell-based, mouse; conditions: Mus musculus, read-out: EC50 for the inhibition of nitrite production by stimulated J774 macrophages
Description: This example illustrates the effect of selected mercapto derivatives on endotoxin-induced nitrite formation in J774.2 macrophages and on IL-1 gamma-interferon induced nitrite formation in cultured rat arctic smooth muscle cells. J774 macrophage cell lines were obtained from the American Type Culture Collection (ATCC) and were grown using standard methods in Dulbecco's Modified Eagle Medium (DMEM) supplemented with 10% fetal bovine serum, glutamine, penicillin (10,000 U/l) and streptomycin (10,000 U/l). Rat aortic smooth muscle cells (RASM) from Wistar rats were isolated by enzymatic dissociation using standard methods. The cells were positively identified as smooth muscle by indirect immunofluorescent staining for a-actin, using mouse anti-α-actin antibody and anti-mouse IgG fluorescein isothiocyanate (FITC) conjugate. RASM cells were grown in T-75 tissue culture flasks in 50% F12 nutrient medium and 50% Dulbecco's Modified Eagle Medium supplemented with 10% fetal bovine serum, glutamine, penicillin (10,000 U/l) and streptomycin (10,000 U/l). Cells were grown in 96-well plates for measure of nitrite production and cell viability. J774 macrophages were treated with endotoxin (10 μg/ml) for 24 hours; smooth muscle cells were treated with IL-1 (100 U/ml) and gamma-interferon (50 U/ml) for 48 hours.
Concentration of nitrite, the degradation product of NO in the culture medium, was determined by mixing equal volumes of medium with the Griess reagent (1% sulfanilamide/0.1% naphthylethylenediamine dihydrochloride/2.5% H3 PO4). The mixture was incubated for 10 minutes at room temperature to form the chromophore, then optical densities (OD) were determined at 550 nm (OD550). NaNO2 was used as the standard. Spectrophotometric measurements were performed in a dual-wavelength spectrophotometer.

ecNOS = target: T1, ecNOS (Bos taurus, UniProt P29473); assay: ecNOS activity from intimal scrapings of fresh bovine aortae (conversion of [3H]-L-arginine to [3H]-L-citrulline); type: biochemical
T1 construct: the intimal surface of fresh bovine aortae was scraped and homogenized; from tissue; host or cells: homogenate of intimal scrapings of fresh bovine aortae
Description: The intimal surface of fresh bovine aortae was scraped in the presence of homogenation buffer composed of 50 mM Tris-HCl, 0.1 mM ethylenediamine tetraacetic acid (EDTA) and 0.1 mM ethyleneglycol bis (beta-aminoethyl ether) (EGTA). Conversion of [^3 H]-L-arginine to [^3 H]-L-citrulline was measured in the homogenates as follows: cell homogenate (50 μl) was incubated in the presence of [^3 H]-L-arginine (10 μM, 5 kBq/tube), NADPH (2 mM), calmodulin (30 nM), tetrahydrobiopterin (5 μM) and calcium (2 mM) for 20 minutes at 37° C. in N-2-hydroxethyl piperazine-N-2-ethane sulfonic acid (HEPES) buffer (pH 7.5). Reactions were stopped by dilution with 1 ml of ice cold HEPES buffer (pH 5.5) containing EGTA (2 mM) and EDTA (2 mM). Reaction mixtures were applied to Dowex 50W (Na^+ form) columns and the eluted [^3 H]-L-citrulline activity was measured by scintillation counting. bNOS activity was measured using similar methods in homogenates of whole rat brains.
For a preparation rich in ecNOS, the intimal surface of fresh bovine aortae was scraped and homogenized. The homogenization buffer was composed of 50 mM tris-HCL, 0.1 mM EDTA, 0.1 mM EGTA and 1 mM phenylmethylsulfonyl chloride (pH 7.4). Cell suspensions were homogenized in the homogenization buffer on ice using a Tissue Tearor 985-370 homogenizer (BioSpec Products, Racine, Wis.). Conversion of [^3 H]-L-arginine to [^3 H]-L-citrulline was measured in the homogenates as described in Example 3 above.

bNOS = target: T2, bNOS (Rattus norvegicus, UniProt P29476); assay: bNOS activity in homogenates of whole rat brains; type: biochemical; conditions: bNOS (Table 2); read-out: EC50 for inhibition of bNOS activity in tissue homogenates
T2 construct: bNOS activity was measured using similar methods in homogenates of whole rat brains; from tissue; host or cells: homogenate of whole rat brains
T2 sequence (P29476 whole entry): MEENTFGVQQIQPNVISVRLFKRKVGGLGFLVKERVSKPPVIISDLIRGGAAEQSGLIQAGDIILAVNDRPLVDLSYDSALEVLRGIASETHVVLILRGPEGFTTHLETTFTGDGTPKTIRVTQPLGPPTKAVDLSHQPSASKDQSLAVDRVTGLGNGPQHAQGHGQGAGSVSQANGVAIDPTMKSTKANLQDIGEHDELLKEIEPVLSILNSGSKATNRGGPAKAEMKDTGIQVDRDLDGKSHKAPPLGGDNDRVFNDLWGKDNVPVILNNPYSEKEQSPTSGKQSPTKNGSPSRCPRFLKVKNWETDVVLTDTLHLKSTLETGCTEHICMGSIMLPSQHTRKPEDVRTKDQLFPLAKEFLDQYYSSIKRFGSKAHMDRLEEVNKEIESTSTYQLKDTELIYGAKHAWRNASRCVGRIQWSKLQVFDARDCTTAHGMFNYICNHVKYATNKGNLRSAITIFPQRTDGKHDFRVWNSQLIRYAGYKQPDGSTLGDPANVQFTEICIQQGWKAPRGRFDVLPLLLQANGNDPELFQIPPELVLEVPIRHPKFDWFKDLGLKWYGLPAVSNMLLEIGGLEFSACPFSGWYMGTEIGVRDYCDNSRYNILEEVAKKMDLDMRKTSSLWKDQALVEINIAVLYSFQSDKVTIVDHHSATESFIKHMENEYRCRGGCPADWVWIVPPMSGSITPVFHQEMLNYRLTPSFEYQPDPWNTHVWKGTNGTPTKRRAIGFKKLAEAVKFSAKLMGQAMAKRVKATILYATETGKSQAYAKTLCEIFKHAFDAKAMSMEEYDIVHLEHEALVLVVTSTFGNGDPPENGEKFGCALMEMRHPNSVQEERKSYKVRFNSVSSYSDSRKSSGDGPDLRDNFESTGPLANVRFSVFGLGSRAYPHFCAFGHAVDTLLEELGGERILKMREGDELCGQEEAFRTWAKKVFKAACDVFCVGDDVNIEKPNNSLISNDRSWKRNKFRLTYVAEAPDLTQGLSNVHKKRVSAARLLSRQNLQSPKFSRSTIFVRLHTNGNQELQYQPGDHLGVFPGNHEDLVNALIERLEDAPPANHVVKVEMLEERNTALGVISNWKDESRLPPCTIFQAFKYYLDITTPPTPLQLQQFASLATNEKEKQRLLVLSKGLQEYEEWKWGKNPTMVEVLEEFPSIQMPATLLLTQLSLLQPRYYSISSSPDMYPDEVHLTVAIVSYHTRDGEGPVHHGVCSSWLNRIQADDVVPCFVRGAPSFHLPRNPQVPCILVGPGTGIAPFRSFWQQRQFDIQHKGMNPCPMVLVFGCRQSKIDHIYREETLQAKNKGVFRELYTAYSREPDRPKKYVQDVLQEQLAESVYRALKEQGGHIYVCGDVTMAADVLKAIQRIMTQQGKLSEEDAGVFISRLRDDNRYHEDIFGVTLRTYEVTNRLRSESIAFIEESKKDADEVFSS

[1] = system: constitutive and inducible NOS isoforms; conditions: background literature; cited from earlier work
iNOS [2] = target: T3, iNOS (Rattus norvegicus, UniProt Q06518); assay: Inhibition of iNOS activity in tissue homogenates (Table 2); type: biochemical; parameters: bNOS in tissue homogenates; from tissue; host or cells: tissue homogenate; conditions: iNOS (Table 2)
[3] = Mean arterial blood pressure in normal anesthetized rats; type: in vivo, Male Wistar rats; conditions: i.v. or i.p.
Description: An increase in blood pressure by agents that inhibit NOS is a good measure of their inhibitory effect on the constitutive, endothelial NOS (ecNOS).
In this particular example, Male Wistar rats were anesthetized with thiopentone sodium (120 mg/kg, i.p). The trachea was cannulated to facilitate respiration and the rectal temperature was maintained at 37° C. by means of a rectal probe connected to a homeothermic blanket. The right carotid artery was cannulated and connected to a pressure transducer for the measurement of phasic and mean arterial blood pressure and heart rate. The left and right femoral veins were cannulated for the administration of drugs.

J774.2 macrophages = assay: Nitrite production in immunostimulated J774.2 macrophages (E.coli LPS + murine gamma-interferon, 24 h); type: cell-based, mouse; conditions: Mus musculus
Description: This example illustrates the effect of selected mercapto and seleno derivatives on nitrite production in J774.2 immunostimulated macrophages. The J774.2 mouse macrophage cell line was obtained from the ATCC and was cultured in DMEM with 4×10^-3 M L-glutamine and 10% fetal calf serum. Cells were cultured in 96-well plates with 200 μl culture medium until they reached 60-80% confluence. To induce INOS, fresh culture medium containing E.coli LPS (10 μg/ml) and murine gamma-interferon (IFN)(50 U/ml) was added. Nitrite accumulation in the cell culture medium in the absence or presence of various inhibitors was measured after 24 hours. Nitrite production, an indicator of NO synthesis, was measured in the supernatant of J774.2 macrophages by the Greiss reaction as described in Example 1 above.
This Example illustrates the effect of selected seleno derivatives on endotoxin-induced nitrite formation in J774.2 macrophages. The mouse macrophage cell line J774.2 obtained from the ATCC was cultured in DMEM with 4×10^-3 M L-glutamine and 10% fetal calf serum. Cells were cultured in 96-well plates with 200 μl culture medium until they reached 60-80% confluence. To induce iNOS, fresh culture medium containing E.coli LPS (10 μg/ml) and murine gamma-interferon (IFN)(50 U/ml) were added. Nitrite accumulation in the cell culture medium in the absence or presence of various inhibitors was measured after 24 hours. There was no detectable nitrite production by the J774.2 macrophages in the absence of immunostimulation. However, in the presence of IFN and LPS, nitrite concentration of the medium increased to 17±2 μM in the absence of inhibitor.

iNOS [4] = target: T3, iNOS; assay: iNOS activity in lung homogenates from rats treated with bacterial endotoxin; type: biochemical; parameters: Lungs were obtained from rats which had been treated with bacterial endotoxin; from tissue; host or cells: lung homogenate from endotoxin-treated rats
Description: This Example illustrates the effect of selected mercapto and seleno derivatives on iNOS activity in lung homogenates prepared from rats treated with endotoxin. […] The homogenization buffer was composed of 50 mM tris-HCL, 0.1 mM EDTA, 0.1 mM EGTA and 1 mM phenylmethylsulfonyl chloride (pH 7.4). Cell suspensions were homogenized in the homogenization buffer on ice using a Tissue Tearor 985-370 homogenizer (BioSpec Products, Racine, Wis.).

SMILES | EC50 (J774 macrophages; J774, 24 h) | EC50 (ecNOS; ecNOS (Table 2), read-out: EC50 for inhibition of ecNOS activity in tissue homogenates) | EC50 (bNOS) | NOS inhibition / isoform selectivity, in words [1] | EC50 (iNOS [2]) | EC50 (ecNOS; n=6, bovine aorta, read-out: EC50, dose dependent inhibition of ecNOS activity) | EC50 (J774 macrophages; J774, endotoxin 10 μg/ml, 24 h (Table 1)) | mean arterial blood pressure (MAP) response [3] | activity at 1000 µM (J774.2 macrophages; J774.2, 24 h, inhibitor concentration -3.000 log M (Table 3), read-out: NITRITE (% OF CONTROL)) | activity at 100 µM (J774.2 macrophages; J774.2, 24 h, inhibitor concentration -4.000 log M (Table 3), read-out: NITRITE (% OF CONTROL)) | activity at 10 µM (J774.2 macrophages; J774.2, 24 h, inhibitor concentration -5.000 log M (Table 3), read-out: NITRITE (% OF CONTROL)) | activity at 1 µM (J774.2 macrophages; J774.2, 24 h, inhibitor concentration -6.000 log M (Table 3), read-out: NITRITE (% OF CONTROL)) | EC50 (J774.2 macrophages; J774.2, IFN and LPS, Example 9, read-out: EC50, inhibition of nitrite production) | iNOS ACTIVITY (%) (iNOS [4]; inhibitor concentration -3.000 log M) | iNOS ACTIVITY (%) (iNOS [4]; inhibitor concentration -4.000 log M) | iNOS ACTIVITY (%) (iNOS [4]; inhibitor concentration -5.000 log M) | iNOS ACTIVITY (%) (iNOS [4]; inhibitor concentration -6.000 log M) | iNOS ACTIVITY (%) (iNOS [4]; inhibitor concentration -7.000 log M) | inhibition of iNOS activity, in words (iNOS [4]; lung homogenates, rats treated with endotoxin)
N=C(N)NN [Aminoguanidine, reference compound] | 120 µM | 2600 µM | 220 µM | selectively inhibit the inducible isoform of nitric oxide synthase | 80 µM |  |  |  |  |  |  |  |  |  |  |  |  |  | 
COC(=O)[C@@H](N)CCCNC(=N)N[N+](=O)[O-] [L-NAME, NG-nitro-L-arginine methyl ester, reference compound] |  |  |  | inhibit both the constitutive and the inducible NOS isoforms to a similar extent |  | 2 µM |  |  |  |  |  |  |  |  |  |  |  |  | 
CNC(=N)NCCC[C@H](N)C(=O)O [L-NMA, N^G -Methyl-L-arginine, reference compound] |  |  |  |  | 17 µM |  | 159 µM | pronounced and dose-dependent pressor response | 12.6% | 45% | 73.5% | 95% | 90 µM | 18.000% | 40.00% | 100.000% | 100.000% | 100.000% | somewhat similar in their inhibitory effect on INOS activity
